Measured values as given in US4921865A, “Aminoacylates of glycerol acetal” (Societe de Conseils de Recherches et d'Applications …, priority 1987, dated 1990).
Values belong to the compound of their own block, whether it stands above or below them.

Tests used:
[1] = test system: antigen-induced leukopenia; assay: antigen-induced leukopenia in passively sensitized guinea-pigs; assay type: in vivo, guinea-pig (Hartley); conditions: 5 mg/kg IV; for Percentage Inhibition (leukopenia): vs control
[2] = test system: antigen-induced thrombocytopenia; assay: antigen-induced thrombocytopenia in passively sensitized guinea-pigs; assay type: in vivo, guinea-pig (Hartley); conditions: 5 mg/kg IV; for Percentage Inhibition (thrombocytopenia): vs control
[3] = biological target: T1, [^3 H]-PAF binding, platelet membrane (Oryctolagus cuniculus, UniProt G1TEI7); assay: inhibition of specific [3H]-PAF binding to rabbit platelet membranes; conditions: 1 nM [3H]-PAF, 0°C 1 h 30
T1 construct: Platelet membrane homogenate was stored at -80° C; from tissue; host or cells: rabbit platelets (membrane homogenate from lysed washed platelets)
T1 sequence (G1TEI7 1-342): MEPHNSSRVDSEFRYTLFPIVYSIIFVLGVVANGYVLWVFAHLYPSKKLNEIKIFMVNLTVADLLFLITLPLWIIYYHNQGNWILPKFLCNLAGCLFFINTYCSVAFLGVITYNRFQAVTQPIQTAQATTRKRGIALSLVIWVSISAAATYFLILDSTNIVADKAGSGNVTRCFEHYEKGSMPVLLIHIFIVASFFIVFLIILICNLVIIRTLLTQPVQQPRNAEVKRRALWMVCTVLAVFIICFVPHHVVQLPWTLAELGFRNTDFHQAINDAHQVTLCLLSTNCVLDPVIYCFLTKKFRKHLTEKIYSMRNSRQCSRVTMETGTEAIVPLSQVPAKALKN
Protocol: Synthetic tritiated [^3 H]-PAF used was in ethanol solution with a specific activity of 59.5 ci/mmols. Unlabelled PAF and lyso-PAF were solubilized in ethanol solution and stored at -80° C. The compounds were solubilized in DMSO.
Rabbit whole blood (6 volumes) was drawn from the central ear artery into 1 volume of ACD solution (citric acide 1.4 g, sodium citrate 2 5 g, Dextrose 2 g per 100 ml of H2 O) and centrifuged at 150 g for 15 minutes. The platelet-rich plasma (PRP) was carefully removed and centrifuged for 15 minutes at 1000 g. The platelet pellet was then washed 3 times: twice in Tris-HCl buffer 10 mM, pH 7.4 containing NaCl 150 mM, MgCl2 5 mM, EDTA 2 mM and the last time in the same but sodium-free buffer.
The platelet pellet was resuspended in this latter buffer, quickly frozen in liquid nitrogen and slowly thawed at room temperature for at least 3 times as described by T. Y. Shen et al. The lysed platelets were centrifuged at 100,000 g for 30 minutes in a BECKMAN model L8.55 ultra centrifuge (rotor 50.2 Ti). Platelet membrane homogenate was stored at -80° C. and used within two weeks without noticeable changes in PAF-acether binding characteristics.
Protein contain was determined by the Lowry method using bovine serum albumine as standard.
60 to 100 μg of membrane proteins were added to a final volume of 1 ml in plastic tubes containing 1 nM [^3 H]-PAF in Tris-HCl 10 mM pH 7 buffer containing 0.025 % bovine serum albumin and incubated with or without unlabelled PAF or PAF-antagonists. The incubation was carried out for 1 h 30 at 0° C. The bound [^3 H]-PAF was separated from the free [^3 H]-PAF by immediate filtration through whatman GF/C glass fiber filters under vacuum (Brandel system). The reaction and the filters were washed 3 times with 5 ml of ice-cold buffer. The filters were then placed into polyethylene phials filled up with 10 ml of liquid scintillation fluid and the radioactivity was measured by an LKB β counter with 45% efficiency.
The non specific binding was determined in the presence of 10^-6 M of unlabelled PAF. The specific binding was calculated by substracting non specific binding from the total binding. The inhibition by compounds on the specific [^3 H]-PAF binding was determined as the percent inhibition by the equation: [formula]

[4] = test system: antigen-induced bronchoconstriction; assay: antigen-induced bronchoconstriction in passively sensitized guinea-pigs; assay type: in vivo, guinea-pig (Hartley); conditions: 5 mg/kg IV
[5] = test system: PAF-induced bronchoconstriction; assay: PAF-induced bronchoconstriction in the guinea pig; assay type: in vivo; conditions: for Percentage Variation (bronchoconstriction): vs control; for inhibition of PAF-induced bronchoconstriction (in words): pyridinium compound 0.5, 1 and 5 mg/kg IV, quinolinium compound 0.5 and 1 mg/kg IV
Protocol: Male Guinea-pig (400-500 g) were anesthetized with urethane (1.5 g/kg: IP) prior to be tracheotomized and ventilated with a respiratory pump (UGO BASILE) (70-80 breath/minute, 1 ml air/100 g/breath) to abolish spontaneous respiration a pneumothorax was performed. The resistance to inflation was measured with a pressure transducer (UGO BASILE) against an initial pressure of 10 cm H2 O according to Konzett and Rossler. Animals were allocated into groups and were treated or not by the compounds of the invention (0.05, 0.1, 0.5, 1 and 5 mg/kg).The products were given IV 1 hour before challenge with PAF.
The animals were challenged with various doses of PAF ([…]) given intravenously, and the variations in the resistance to inflation were recorded.

IC50 [3]: 35 nM
Structure (SMILES): CCCCCCCCCCCCCCCCCC1(C)OCC(COC(=O)CCCCC[n+]2ccccc2)O1 (stereo not shown) [Example 9, 2-heptadecyl 2-methyl 4-[6'-(N-pyridinium)hexanoyloxymethyl] 1,3 dioxolan bromide]
effect on antigen-induced leukopenia (in words) [1]: antagonizes | Percentage Decrease in leukocytes number ([1]; 1 mn): -15.6 +/- 6.6% | Percentage Inhibition (leukopenia) ([1]; 1 mn): +32.0% | Percentage Decrease in leukocytes number ([1]; 5 mn): -8.7 +/- 10.7% | Percentage Inhibition (leukopenia) ([1]; 5 mn): -78.0% | Percentage Decrease in leukocytes number ([1]; 10 mn): -12.3 +/- 14.1% | Percentage Inhibition (leukopenia) ([1]; 10 mn): -77.2% | effect on antigen-induced thrombocytopenia (in words) [2]: antagonizes | Percentage Inhibition (thrombocytopenia) ([2]; 1 mn): -104.4% | Percentage Inhibition (thrombocytopenia) ([2]; 5 mn): -91.2% | Percentage Inhibition (thrombocytopenia) ([2]; 10 mn): -39.8% | Percentage Bronchoconstriction [4]: 51.3 +/- 14.2% | effect on antigen-induced bronchoconstriction (in words) [4]: without significantly reducing | Percentage Variation (bronchoconstriction) ([4]; vs control): -28.7% | Percentage Bronchoconstriction ([5]; 0.05 mg/kg IV): 79.0 +/- 9.27% | Percentage Variation (bronchoconstriction) ([5]; 0.05 mg/kg IV): -1.0% | Percentage Bronchoconstriction ([5]; 0.1 mg/kg IV): 43.8 +/- 14.77% | Percentage Variation (bronchoconstriction) ([5]; 0.1 mg/kg IV): -45.1% | Percentage Bronchoconstriction ([5]; 0.5 mg/kg IV): 23.6 +/- 7.15% | Percentage Variation (bronchoconstriction) ([5]; 0.5 mg/kg IV): -70.4% | Percentage Bronchoconstriction ([5]; 1 mg/kg IV): 19.1 +/- 10.51% | Percentage Variation (bronchoconstriction) ([5]; 1 mg/kg IV): -76.1% | Percentage Bronchoconstriction ([5]; 5 mg/kg IV): 3.5 +/- 1.53% | Percentage Variation (bronchoconstriction) ([5]; 5 mg/kg IV): -95.6% | inhibition of PAF-induced bronchoconstriction (in words) [5]: inhibit

IC50 [3]: 35 nM
Structure (SMILES): CCCCCCCCCCCCCCCCCC1(C)OCC(COC(=O)CCCCC[n+]2cccc3ccccc32)O1 (stereo not shown) [Example 10, 2-heptadecyl 2-methyl 4-[6'-(N-quinolinium)hexanoyloxymethyl) 1,3-dioxolanbromide]
Percentage Bronchoconstriction ([5]; 0.1 mg/kg IV): 80.4 +/- 13.78% | Percentage Variation (bronchoconstriction) ([5]; 0.1 mg/kg IV): -11.5% | Percentage Bronchoconstriction ([5]; 0.5 mg/kg IV): 25.1 +/- 6.53% | Percentage Variation (bronchoconstriction) ([5]; 0.5 mg/kg IV): -72.4% | Percentage Bronchoconstriction ([5]; 1 mg/kg IV): 8.1 +/- 2.91% | Percentage Variation (bronchoconstriction) ([5]; 1 mg/kg IV): -91.1% | inhibition of PAF-induced bronchoconstriction (in words) [5]: inhibit
